Experiments:
Assay type in all cases: in vivo
[1] = tested on: tobacco budworm (Heliothis virescens); assay: Action on tobacco budworm (Heliothis virescens), 96-well microtiter plate diet test; settings: 120 h, egg and larval mortality after 5 days, read-out: mortality in comparison with untreated controls
Experimental: For evaluating control of tobacco budworm (Helliothis virescens) the test unit consisted of 96-well-microtiter plates containing an insect diet and 15-25 H. virescens eggs.
The compounds were formulated using a solution containing 75% v/v water and 25% v/v DMSO. Different concentrations of formulated compounds were sprayed onto the insect diet at 10 μl, using a custom built micro atomizer, at two replications.
After application, microtiter plates were incubated at about 28±1° C. and about 80±5% relative humidity for 5 days. Egg and larval mortality was then visually assessed.

[2] = tested on: Diamond Back Moth (Plutella xylostella); assay: Action on diamond back moth (Plutella xylostella), cabbage leaf dip; settings: foliar, 3rd instar larvae on dipped cabbage leaves, 72 hours after treatment, read-out: mortality in comparison with untreated controls
Experimental: The active compound is dissolved at the desired concentration in a mixture of 1:1 (vol:vol) distilled water:acetone. Surfactant (Kinetic® HV) is added at a rate of 0.01% (vol/vol).The test solution is prepared at the day of use.
Leaves of cabbage were dipped in test solution and air-dried. Treated leaves were placed in petri dishes lined with moist filter paper and inoculated with ten 3rd instar larvae. Mortality was recorded 72 hours after treatment. Feeding damages were also recorded using a scale of 0-100%.

[3] = tested on: yellow fever mosquito (Aedes aegypti); assay: whole plant or invertebrate; settings: 48 h, larval mortality visually assessed after 2 days, read-out: mortality in comparison with untreated controls
Experimental: For evaluating control of yellow fever mosquito (Aedes aegypti) the test unit consisted of 96-well-microtiter plates containing 200 μl of tap water per well and 5-15 freshly hatched A. aegypti larvae.
The active compounds were formulated using a solution containing 75% (v/v) water and 25% (v/v) DMSO. Different concentrations of formulated compounds or mixtures were sprayed onto the insect diet at 2.5 μl, using a custom built micro atomizer, at two replications.
After application, microtiter plates were incubated at 28±1° C., 80±5% RH for 2 days. Larval mortality was then visually assessed.

[4] = tested on: Orchid thrips (Dichromothrips corbetti); assay: Action on orchid thrips (Dichromothrips corbetti), floral-immersion technique; settings: adult thrips, mortality 72 hours after treatment, read-out: mortality in comparison with untreated controls
Experimental: Dichromothrips corbetti adults used for bioassay were obtained from a colony maintained continuously under laboratory conditions. For testing purposes, the test compound is diluted in a 1:1 mixture of acetone:water (vol:vol), plus Kinetic® HV at a rate of 0.01% v/v.
Thrips potency of each compound was evaluated by using a floral-immersion technique. All petals of individual, intact orchid flowers were dipped into treatment solution and allowed to dry in Petri dishes. Treated petals were placed into individual re-sealable plastic along with about 20 adult thrips. All test arenas were held under continuous light and a temperature of about 28° C. for duration of the assay. After 3 days, the numbers of live thrips were counted on each petal. The percent mortality was recorded 72 hours after treatment.

[5] = tested on: boll weevil (Anthonomus grandis); assay: Action on boll weevil (Anthonomus grandis), 96-well microtiter plate diet test; settings: 120 h, egg and larval mortality after 5 days, read-out: mortality in comparison with untreated controls
Experimental: For evaluating control of boll weevil (Anthonomus grandis) the test unit consisted of 96-well-microtiter plates containing an insect diet and 5-10 A. grandis eggs.
The compounds were formulated using a solution containing 75% v/v water and 25% v/v DMSO. Different concentrations of formulated compounds were sprayed onto the insect diet at 5 μl, using a custom built micro atomizer, at two replications.
After application, microtiter plates were incubated at about 25±1° C. and about 75±5% relative humidity for 5 days. Egg and larval mortality was then visually assessed.

[6] = tested on: Southern Armyworm (Spodoptera eridania), 2nd Instar Larvae; assay: Action on southern armyworm (Spodoptera eridania), 2nd instar larvae, sprayed lima bean plants; settings: 96 h, 2nd instar larvae on lima bean, 4 days after treatment, read-out: mortality in comparison with untreated controls
Experimental: The active compounds were formulated by a Tecan liquid handler in 100% cyclohexanone as a 10,000 ppm solution supplied in tubes. The 10,000 ppm solution was serially diluted in 100% cyclohexanone to make interim solutions. These served as stock solutions for which final dilutions were made by the Tecan in 50% acetone:50% water (v/v) into 10 or 20 ml glass vials. A nonionic surfactant (Kinetic®) was included in the solution at a volume of 0.01% (v/v). The vials were then inserted into an automated electrostatic sprayer equipped with an atomizing nozzle for application to plants/insects.
Lima bean plants (variety Sieva) were grown 2 plants to a pot and selected for treatment at the 1st true leaf stage. Test solutions were sprayed onto the foliage by an automated electrostatic plant sprayer equipped with an atomizing spray nozzle. The plants were dried in the sprayer fume hood and then removed from the sprayer. Each pot was placed into perforated plastic bags with a zip closure. About 10 to 11 armyworm larvae were placed into the bag and the bags zipped closed. Test plants were maintained in a growth room at about 250C and about 20-40% relative humidity for 4 days, avoiding direct exposure to fluorescent light (24 hour photoperiod) to prevent trapping of heat inside the bags. Mortality and reduced feeding were assessed 4 days after treatment, compared to untreated control plants.

Cc1nc(N(C)c2ccc(OC(F)(F)F)cc2)ncc1CC(C)/C=N/N=C1\SCC(=O)N1c1ccccc1C(C)C (stereo not shown) [Compound C-24, (2Z)-3-(2-isopropylphenyl)-2-[(E)-[2-methyl-3-[4-methyl-2-[N-methyl-4-(trifluoromethoxy)anilino]pyrimidin-5-yl]propylidene]hydrazono]thiazolidin-4-one]
mortality at 800 ppm [1]: ≥ 75%
mortality at 500 ppm [2]: ≥ 75%

CC(/C=N/NC(=S)Nc1ccccc1C(C)C)=C\c1cnc(Nc2ccc(OC(F)(F)F)cc2)nc1 [Compound C-1, 1-(2-isopropylphenyl)-3-[(E)-[(E)-2-methyl-3-[2-[4-(trifluoromethoxy)anilino]pyrimidin-5-yl]prop-2-enylidene]amino]thiourea]
mortality at 800 ppm [3]: ≥ 75%
mortality at 500 ppm [4]: ≥ 75%
mortality at 800 ppm [5]: ≥ 75%
mortality at 800 ppm [1]: ≥ 75%
mortality at 500 ppm [2]: ≥ 75%
mortality at 300 ppm [6]: ≥ 75%

CC(/C=N/NC(=S)Nc1ccccc1C(C)C)Oc1cnc(N(C)c2ccc(OC(F)(F)F)cc2)nc1 (stereo not shown) [Compound C-20, 1-(2-isopropylphenyl)-3-[(E)-2-[2-[N-methyl-4-(trifluoromethoxy)anilino]pyrimidin-5-yl]oxypropylideneamino]thiourea]
mortality at 500 ppm [2]: ≥ 75%

CC(C)c1ccccc1N1C(=O)CS/C1=N\N=C\C(=O)Nc1cnc(N(C)c2ccc(OC(F)(F)F)cc2)nc1 [Compound C-11, (2E)-2-[(Z)-[3-(2-isopropylphenyl)-4-oxo-thiazolidin-2-ylidene]hydrazono]-N-[2-[N-methyl-4-(trifluoromethoxy)anilino]pyrimidin-5-yl]acetamide]
mortality at 800 ppm [1]: ≥ 75%
mortality at 500 ppm [2]: ≥ 75%
mortality at 300 ppm [6]: ≥ 75%

CC(C)c1ccccc1N1C(=O)CS/C1=N\N=C\C(=O)N(C)c1cnc(N(C)c2ccc(OC(F)(F)F)cc2)nc1 [Compound C-10, (2E)-2-[(Z)-[3-(2-isopropylphenyl)-4-oxo-thiazolidin-2-ylidene]hydrazono]-N-methyl-N-[2-[N-methyl-4-(trifluoromethoxy)anilino]pyrimidin-5-yl]acetamide]
mortality at 800 ppm [1]: ≥ 75%
mortality at 500 ppm [2]: ≥ 75%
mortality at 300 ppm [6]: ≥ 75%

CC(/C=N/N=C1\SCC(=O)N1c1ccccc1C(C)C)Oc1cnc(N(C)c2ccc(OC(F)(F)F)cc2)nc1 (stereo not shown) [Compound C-21, (2Z)-3-(2-isopropylphenyl)-2-[(E)-2-[2-[N-methyl-4-(trifluoromethoxy)anilino]pyrimidin-5-yl]oxypropylidenehydrazono]thiazolidin-4-one]
mortality at 500 ppm [2]: ≥ 75%

Cc1cc(N(C)c2ccc(OC(F)(F)F)cc2)nc(C)c1OC/C=N/N=C1\SCC(=O)N1c1ccccc1C(C)C [Compound C-31, (2Z)-2-[(E)-2-[[2,4-dimethyl-6-[N-methyl-4-(trifluoromethoxy)anilino]-3-pyridyl]oxy]ethylidenehydrazono]-3-(2-isopropylphenyl)thiazolidin-4-one]
mortality at 800 ppm [3]: ≥ 75%
mortality at 800 ppm [5]: ≥ 75%
mortality at 800 ppm [1]: ≥ 75%
mortality at 500 ppm [2]: ≥ 75%
mortality at 300 ppm [6]: ≥ 75%

CC(C)c1ccccc1N1C(=O)CS/C1=N\N=C\COc1cnc(N(C)c2ccc(OC(F)(F)F)cc2)nc1 [Compound C-19, (2Z)-3-(2-isopropylphenyl)-2-[(E)-2-[2-[N-methyl-4-(trifluoromethoxy)anilino]pyrimidin-5-yl]oxyethylidenehydrazono]thiazolidin-4-one]
mortality at 500 ppm [2]: ≥ 75%
mortality at 300 ppm [6]: ≥ 75%

CC(C)c1ccccc1NC(=S)N/N=C/COc1cnc(N(C)c2ccc(OC(F)(F)F)cc2)nc1 [Compound C-18, 1-(2-isopropylphenyl)-3-[(E)-2-[2-[N-methyl-4-(trifluoromethoxy)anilino]pyrimidin-5-yl]oxyethylideneamino]thiourea]
mortality at 500 ppm [2]: ≥ 75%
mortality at 300 ppm [6]: ≥ 75%

CC(C)c1ccccc1NC(=S)N/N=C/C(=O)Nc1cnc(N(C)c2ccc(OC(F)(F)F)cc2)nc1 [Compound C-13, (2E)-2-[(2-isopropylphenyl)carbamothioylhydrazono]-N-[2-[N-methyl-4-(trifluoromethoxy)anilino]pyrimidin-5-yl]acetamide]
mortality at 800 ppm [1]: ≥ 75%
mortality at 500 ppm [2]: ≥ 75%
mortality at 300 ppm [6]: ≥ 75%

CC(C)c1ccccc1N1CC(=O)N(/N=C/C=C/c2cnc(N(C)c3ccc(OC(F)(F)F)cc3)nc2)C1=O [Compound C-14, 1-(2-isopropylphenyl)-3-[(E)-[(E)-3-[2-[N-methyl-4-(trifluoromethoxy)anilino]pyrimidin-5-yl]prop-2-enylidene]amino]imidazolidine-2,4-dione]
mortality at 500 ppm [4]: ≥ 75%
mortality at 800 ppm [5]: ≥ 75%
mortality at 800 ppm [1]: ≥ 75%
mortality at 500 ppm [2]: ≥ 75%

CC(/C=N/NC(=S)Nc1c(C)cccc1C)=C\c1cnc(Nc2ccc(OC(F)(F)F)cc2)nc1 [Compound C-2, 1-(2,6-dimethylphenyl)-3-[(E)-[(E)-2-methyl-3-[2-[4-(trifluoromethoxy)anilino]pyrimidin-5-yl]prop-2-enylidene]amino]thiourea]
mortality at 800 ppm [3]: ≥ 75%
mortality at 800 ppm [5]: ≥ 75%
mortality at 800 ppm [1]: ≥ 75%
mortality at 500 ppm [2]: ≥ 75%
mortality at 300 ppm [6]: ≥ 75%

CC(C=N/N=C1\SCC(=O)N1c1c(C)cccc1C)=Cc1cnc(Nc2ccc(OC(F)(F)F)cc2)nc1 [Compound C-4, (2Z)-3-(2,6-dimethylphenyl)-2-[(2-methyl-3-[2-[4-(trifluoromethoxy)anilino]pyrimidin-5-yl]prop-2-enylidene]hydrazono]thiazolidin-4-one]
mortality at 800 ppm [3]: ≥ 75%
mortality at 800 ppm [5]: ≥ 75%
mortality at 800 ppm [1]: ≥ 75%
mortality at 500 ppm [2]: ≥ 75%
mortality at 300 ppm [6]: ≥ 75%

CC(/C=N/N=C1\SCC(=O)N1c1ccccc1C(C)C)Oc1ccc(N(C)c2ccc(OC(F)(F)F)cc2)nn1 (stereo not shown) [Compound C-28, (2Z)-3-(2-isopropylphenyl)-2-[(E)-2-[6-[N-methyl-4-(trifluoromethoxy)anilino]pyridazin-3-yl]oxypropylidenehydrazono]thiazolidin-4-one]
mortality at 500 ppm [2]: ≥ 75%

Cc1cc(N(C)c2ccc(OC(F)(F)F)cc2)nc(C)c1OC/C=N/NC(=S)Nc1ccccc1C(C)C [Compound C-30, 1-[(E)-2-[[2,4-dimethyl-6-[N-methyl-4-(trifluoromethoxy)anilino]-3-pyridyl]oxy]ethylideneamino]-3-(2-isopropylphenyl)thiourea]
mortality at 800 ppm [1]: ≥ 75%
mortality at 500 ppm [2]: ≥ 75%

CC(C)c1ccccc1N1C(=O)CS/C1=N\N=C\COc1ccc(N(C)c2ccc(OC(F)(F)F)cc2)nn1 [Compound C-29, (2Z)-3-(2-isopropylphenyl)-2-[(E)-2-[6-[N-methyl-4-(trifluoromethoxy)anilino]pyridazin-3-yl]oxyethylidenehydrazono]thiazolidin-4-one]
mortality at 500 ppm [2]: ≥ 75%

Source: patent US20200077658A1, “Pesticidal Compounds” (BASF SE, priority 2016, published 2020)
